The results in this text go back to US20120178671A1, “INHIBITION OF NFK-B MEDIATED VIRUS REPLICATION WITH SPECIFIC OLIGOSACCHARIDES” (N.V. Nutricia, priority 2009, published 2012).

Holding throughout (format): cell-based
One assay has as its system NF-κB. The assay is described as follows: Screening of oligosaccharides NFK-B inhibiting activity. The following applies: screening of (oligo)saccharides, Yes/No. The source says: It is hypothesized that the main site of action of the specific nutritional oligosaccharides as mentioned in example 1, is the intestine. […] Screening of oligosaccharides NFK-B inhibiting activity

For another assay, the system named is NFκB activation. Briefly: NFκB luciferase reporter in HEK293 cells with EPA, pAOS and L-cysteine, TNF-α induced. The following applies: HEK293-NFκB-Luc cells stimulated with TNFα; for activity at 1000 µM: Homo sapiens, read-out: Inhibition of NFκB activation, average. The procedure: Methods: HEK293 cells were stably transfected with a NFκB luciferase reporter gene construct. One day after cell plating EPA (0, 25 μM) was added at t=0 h. pAOS (0, 1, 2 and 3 g/L) were added at t=96 h and L-cysteine (0, 1 mM) at t=120 h. NFκB activation was induced by 2.5 h incubation with TNF-α. Luciferase activity was subsequently assessed at t=122.5 h. As a control for cell viability cellular ATP levels were determined.
On the technique in general: In a reporter assay the amount or activity of a reporter protein is the signal.

The next assay deals with HEK293 cells. Briefly: Glutathione in HEK293 cells incubated with pAOS and NAC. The settings on record: AOS 22.5 hr (18 h in Example 4), NAC 2.5 hr, compared with TNF-α-stimulated cells (control). As for the experimental part: To determine this, HEK293 cells were incubated with AOS for 22.5 hr. and NAC in combination with TNF-α for 2.5 hr. Obtained GSH levels were corrected for cell numbers and results were compared levels with TNF-α-stimulated cells (control). […] The combination of NAC and AOS enhance GSH production up to 278% compared with control. Data sets were compared with their baseline controls (0 mg/ml AOS in combination with its specific concentration of NAC or L-cysteine) and presented in example 2. High concentrations of AOS and NAC result in a relative stronger increase in GSH levels.
Methods: HEK293 cells were incubated with citrus pectin oligosaccharide (pAOS) for 18 h, then as a cystein source, NAC was added and incubated for 2.5 h. After the incubation period, the cells were centrifugated (2000 rpm for 5 min). Medium was discarded and taken up into ice-cold perchloric acid (0.4 M) and resuspended. Samples were then centrifuged for 10 min. at 13.000 rpm. Supernatant was collected and used for glutathione measurements. Total glutathione measurements were performed in 10 or 20 times diluted samples.

The subject of assay [1] is TNF-α-mediated NF-κB activation. Briefly: NF-κB luciferase reporter in HEK293 cells, TNF-α induced (pAOS with NAC or L-cysteine). The settings on record: pAOS pre-incubated, NAC or L-cysteine added with TNF-α for 2.5 hr. The procedure: FIG. 2. NFkappaB response in HEK293 cells after 22.5 hr. incubation with AOS and NAC (A) or L-cysteine (B) with TNF-α for 2.5 hr. […] TNF-α was added to induce NF-κB activation. citrus pectin oligosaccharide (pAOS) was added 18 h prior to TNF-α addition (t=18 h). As a cystein source, NAC was added at the same time as TNF-α. At t=20.5 the production of luciferase was measured by chemiluminescence.

SMILES strings stand for the structures. Entries after “also recorded” stand apart in the source; their conditions may differ. Read-outs that look alike come from different tables or passages of the source.

In the case of `O=C(O)[C@H]1O[C@H](O[C@@H]2[C@H](O)[C@@H](O)[C@@H](O)O[C@@H]2C(=O)O)[C@H](O)[C@@H](O)[C@H]1O` [Digalacturonic acid], the NFκB inhibition entry with NF-κB is reported as “Yes”.
Regarding `OC[C@H]1O[C@H](OC[C@H]2OC(O)(CO)[C@@H](O)[C@@H]2O)[C@H](O)[C@@H](O)[C@@H]1O` (stereo partly drawn) [Palatinose], in the assay with NF-κB, the NFκB inhibition result is “No”.
In the case of `OC[C@H]1O[C@@](CO)(OC[C@@]2(OC[C@@]3(OC[C@@]4(O[C@H]5O[C@H](CO)[C@@H](O)[C@H](O)[C@H]5O)O[C@H](CO)[C@@H](O)[C@@H]4O)O[C@H](CO)[C@@H](O)[C@@H]3O)O[C@H](CO)[C@@H](O)[C@@H]2O)[C@@H](O)[C@@H]1O` [1,1,1-kestopentaose], in the assay with NF-κB, the NFκB inhibition entry is given as “No”.
On the same count and under the same terms, with `O=C(O)[C@H]1O[C@H](O[C@@H]2[C@H](O)[C@@H](O)[C@@H](O[C@@H]3[C@H](O)[C@@H](O)C(O)O[C@@H]3C(=O)O)O[C@@H]2C(=O)O)[C@H](O)[C@@H](O)[C@H]1O` (stereo partly drawn) [Trigalacturonic acid] the entry was “Yes”.
Take `CC/C=C\C/C=C\C/C=C\C/C=C\C/C=C\CCCC(=O)O` [EPA, eicosapentaenoic acid]: the “Inhibition of NFκB activation, average” value in the assay on NFκB activation (AOS 0 mg/ml, EPA 25 uM and/or L-cysteine 1 mM as labelled, control without additions = 100) was determined as 113; with NFκB activation (AOS 1 mg/ml, alone or together with the labelled EPA 25 uM and/or L-cysteine 1 mM, control = 100), 62; with NFκB activation (AOS 2 mg/ml, alone or together with the labelled EPA 25 uM and/or L-cysteine 1 mM, control = 100), 29; in the assay on NFκB activation (AOS 3 mg/ml, alone or together with the labelled EPA 25 uM and/or L-cysteine 1 mM, control = 100), 8.
`O.OC[C@H]1O[C@H](OC[C@H]2O[C@H](OC[C@H]3O[C@H](O[C@]4(CO)O[C@H](CO)[C@@H](O)[C@@H]4O)[C@H](O)[C@@H](O)[C@@H]3O)[C@H](O)[C@@H](O)[C@H]2O)[C@H](O)[C@@H](O)[C@H]1O` [Stachyose hydrate]: the NFκB inhibition entry in the assay on NF-κB was “No”.
On the same count and under the same terms, with `OC[C@H]1O[C@@](CO)(OC[C@@]2(O[C@H]3O[C@H](CO)[C@@H](O)[C@H](O)[C@H]3O)O[C@H](CO)[C@@H](O)[C@@H]2O)[C@@H](O)[C@@H]1O` [1-kestose] the entry was “No”; with `O=C[C@H](O)[C@@H](O)[C@@H](O)[C@H](O)C(=O)O` [Galacturonic acid], “No”.
The same measure, in the same setting: with `OC[C@H]1O[C@@](CO)(OC[C@@]2(OC[C@@]3(O[C@H]4O[C@H](CO)[C@@H](O)[C@H](O)[C@H]4O)O[C@H](CO)[C@@H](O)[C@@H]3O)O[C@H](CO)[C@@H](O)[C@@H]2O)[C@@H](O)[C@@H]1O` [1,1-kestotetraose] the entry was “No”.
Take `CC(=O)N[C@@H](CS)C(=O)O` [NAC, N-acetyl cysteine]: the “GSH (glutathione) levels, result in words” value with HEK293 cells was “enhances GSH levels in a concentration of 10 mM”. Moreover, the “TNF-α-mediated NF-κB activation, result in words” value in assay [1] is recorded as “capable of blocking NF-κB activation; also recorded: inhibited TNF-α-mediated NF-κB activation dose dependently”.
On to `N[C@@H](CS)C(=O)O` [L-cysteine], for which the activity at 1000 µM came out at 80% with NFκB activation (HEK293, AOS 0 mg/ml, EPA 25 uM and/or L-cysteine 1 mM as labelled, control without additions = 100); 55% with NFκB activation (HEK293, AOS 1 mg/ml, alone or together with the labelled EPA 25 uM and/or L-cysteine 1 mM, control = 100); 32% in the assay on NFκB activation (HEK293, AOS 2 mg/ml, alone or together with the labelled EPA 25 uM and/or L-cysteine 1 mM, control = 100); 24% in the assay on NFκB activation (HEK293, AOS 3 mg/ml, alone or together with the labelled EPA 25 uM and/or L-cysteine 1 mM, control = 100).
